Reference: patent US8557864B2, “Agent having neurotrophic factor-like activity” (Nagoya Industrial Science Research Institute, priority 2007, dated 2013)

How the values were obtained:
MAP kinases = experiment: Measurement of activation of MAP kinases in cultured nerve cells (western immunoblotting); type: cell-based; details: fetal rat cerebral cortex nerve cells, compound 500 μg/ml, 30 minutes, relative to control
Experimental: Activation of MAP kinases was measured on respective compounds in Table 1 including the compound obtained in Production Example with western immunoblotting as follows. Nerve cells were dispersed from a cerebral cortex of a 17-day-old fetal rat and the nerve cells were cultured in a Dulbecco's modified eagle medium (DMEM) containing 5%; fetal bovine serum for 1 day. A culture solution was exchanged to a serum-free medium (B27 supplement added Neurobasal, Invitrogen Corporation), and the nerve cells were cultured in a culture petri dish coated with polyornithine at a density of 20,000 to 40,000 cells/cm^2. Three days later, each of the compounds in Table 1 was added thereto, and culture for 30 minutes was continued. Then, cells were recovered on ice with a solution of a Tris-HCL buffer as a base containing a phosphatase inhibitor. The protein concentration of the obtained cell extraction was determined using a BCA Protein Assay Kit (TAKARABIO INC.), a constant amount (3 μg for MAP kinase measurement, 5 μg for phosphorylated MAP kinase measurement) of the protein was electrophoresed with a polyacrylic amide gel. The protein was transcribed to a PVDF membrane from the gel after electrophoresis, and western immunoblotting was carried out using the primary antibodies: an anti-MAP kinase antibody (Cell Signaling Technology, Inc.) and an antiphosphorylated MAP kinase antibody (Cell Signaling Technology, Inc.), respectively. Subsequently, an enzyme activity was subjected to color development by being reacted with the secondary antibody: an alkaline phosphatase labeled anti-rabbit IgG antibody (Promega KK) to measure MAP kinases and phosphorylated MAP kinases. In addition, each compound was dissolved in 0.7% DMSO and adjusted to have a concentration of 500 μg/ml. A control was added with a phosphoric acid buffer containing 0.1% DMSO in the same amount as the compound.
The above obtained concentration measurement of the electrophoresis gel band was digitalized by calculating an intensity with Image J (BioArts International, Inc.). The numerical value of MAP kinases of each compound was divided by the numerical value of the control's MAP kinases, and the numerical value of phosphorylated MAP kinases of each compound was divided by the numerical value of the control's phosphorylated MAP kinases to find a ratio of the MAP kinases of each compound to the control and a ratio of the phosphorylated MAP kinases of the each compound to the control. Then, the obtained ratio of the phosphorylated MAP kinases to the control was divided by the obtained ratio of the MAP kinases to the control to find a ratio of the phosphorylated MAP kinases to the MAP kinases and graphs were formed and shown in FIGS. 1 to 3. Compound 1, compound 6, compound 11, compound 16, compound 21 and compound 36 in Table 1 were used from products made by Wako Pure Chemical Industries, Ltd.

[1] = Measurement of weights of mice before and after stress; type: in vivo; details: 3 weeks with stress
From the text: A weight of a mouse before stress was subtracted from the weight of the mouse immediately after administering the compound 8 as well as stress for 3 weeks to obtain a weight gap (g).

[2] = test system: mRNAs of BDNF, NT-3, NGF and GR; experiment: mRNA expression of neurotrophic factors and glucocorticoid receptor in cortex of frontal lobe and hippocampus; type: in vivo, mice; details: 24 hours after 3 weeks of stress with compound 8, RT-PCR relative to β actin
Experimental: mRNA expressions of a brain-derived neurotrophic factor (hereinafter expressed as “BDNF”), neurotrophin-3 (hereinafter expressed as “NT-3”), a nervous growth factor (hereinafter expressed as “NGF”) and a glucocorticoid receptor (hereinafter expressed as “GR”) in a cortex of frontal lobe and a hippocampus of a mouse after stress were examined as follows. After 24 hours from completion of stress for 3 weeks in the same method as described in Example 2, mice administered with the compound 8 in each of the amounts of 0, 20, 100 and 500 μg/kg, at the same time as stress, and non-stressed mice administered with only a phosphoric acid buffer containing 0.1% DMSO were sacrificed and the cortexes of frontal lobes and hippocampi were excised respectively, and thereto were added TriZol. […]
The obtained precipitate was washed with 70% ethanol, dried and then dissolved in TE to form a total RNA sample. […] The fluorescence intensity of the band was read with a densitometer to digitalize and the obtained value was divided with a fluorescence intensity of a band of RT-PCR of β actin mRNA of an internal standard, which has been found separately, and a graph was formed assuming that the band value of a non-stressed mouse/β actin band value was 1.0. […]

Compound: CCCCCCC/C=C/C(=O)OCC [Compound 8, trans-2-decenoic acid ethyl ester]
- ratio of phosphorylated MAP kinases to MAP kinases (MAP kinases): twice or more
- ratio of phosphorylated MAP kinases to MAP kinases (MAP kinases; listed as trans-2-decenic acid ethyl ester): 11 times
- weight gap, stressed vs non-stressed example ([1]; 500 μg/kg administration group): no significant difference
- ratio of weight decrease in stressed examples compared to control (PBS) ([1]; compound 8 administration groups): less
- expression of mRNAs of BDNF, NT-3, NGF and GR [2]: returned to the level of non-stressed examples
